Laboratory results: ChEMBL document CHEMBL1133475, “Inhibitors of NF-kappaB and AP-1 gene expression: SAR studies on the pyrimidine portion of 2-chloro-4-trifluoromethylpyrimidine-5-[N-(3', 5'-bis(trifluoromethyl)phenyl)carboxamide]” (J Med Chem, 2000)

Organism: Homo sapiens
Assay: Compound was tested for permeability in Caco-2 cells by HPLC method
Type: ADME, cell-based
In the case of `Cc1nc(Cl)ncc1C(=O)Nc1cc(C(F)(F)F)cc(C(F)(F)F)c1`, the Permeability is reported as 6.2 ×10⁻⁶ cm/s.
For `CCCc1nc(Cl)ncc1C(=O)Nc1cc(C(F)(F)F)cc(C(F)(F)F)c1`, the Permeability was 3.1 ×10⁻⁶ cm/s.
In the case of `O=C(Nc1cc(C(F)(F)F)cc(C(F)(F)F)c1)c1cnc(Cl)nc1Cl`, the Permeability is reported as 3.1 ×10⁻⁶ cm/s.
`O=C(Nc1cc(C(F)(F)F)cc(C(F)(F)F)c1)c1cnc(Cl)nc1-c1ccccc1` was tested, and the Permeability was 0.9 ×10⁻⁶ cm/s.
For `O=C(Nc1cc(C(F)(F)F)cc(C(F)(F)F)c1)c1cnc(F)nc1C(F)(F)F`, the Permeability was 1.9 ×10⁻⁶ cm/s.
`CCc1nc(Cl)ncc1C(=O)Nc1cc(C(F)(F)F)cc(C(F)(F)F)c1` gave a Permeability of 5.8 ×10⁻⁶ cm/s.
Compound `O=C(Nc1cc(C(F)(F)F)cc(C(F)(F)F)c1)c1cnc(Cl)nc1` has a Permeability of 6.1 ×10⁻⁶ cm/s.
In the case of `O=C(Nc1cc(C(F)(F)F)cc(C(F)(F)F)c1)c1cnc(Cl)nc1-c1cccs1`, the Permeability is reported as 2.1 ×10⁻⁶ cm/s.
Compound `O=C(Nc1cc(C(F)(F)F)cc(C(F)(F)F)c1)c1cnc(Cl)nc1C(F)(F)C(F)(F)F` has a Permeability of 0.9 ×10⁻⁶ cm/s.
Compound `O=C(Nc1cc(C(F)(F)F)cc(C(F)(F)F)c1)c1cnc(Cl)nc1C(F)(F)F` has a Permeability of 1.1 ×10⁻⁶ cm/s.
